From patent US11718622B2, “Heterocyclic adenosine receptor antagonists” (Exelixis, Inc., priority 2020, dated 2023)
pIC50: −log10 of the molar value.

How the values were obtained:
[1] = molecular target: Adenosine A2B (ADORA2B) receptor (Homo sapiens (Human), UniProt P29275); test: ADORA2B Receptor Binding Assay; conditions: radioligand binding, membrane stock
In short: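 Radioligand competition binding on human A2B receptor membranes, 1 h at room temperature, then filtration through BSA-presoaked GF/C filters and ³H counting by scintillation. Inhibition expressed as % of high control after background subtraction.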

[2] = molecular target: Adenosine A2a (ADORA2A) receptor (Homo sapiens (Human), UniProt P29274); test: ADORA2A Receptor Binding Assay; conditions: radioligand binding, membrane stock
Adenosine A2a (ADORA2A) receptor, sequence (P29274 whole entry): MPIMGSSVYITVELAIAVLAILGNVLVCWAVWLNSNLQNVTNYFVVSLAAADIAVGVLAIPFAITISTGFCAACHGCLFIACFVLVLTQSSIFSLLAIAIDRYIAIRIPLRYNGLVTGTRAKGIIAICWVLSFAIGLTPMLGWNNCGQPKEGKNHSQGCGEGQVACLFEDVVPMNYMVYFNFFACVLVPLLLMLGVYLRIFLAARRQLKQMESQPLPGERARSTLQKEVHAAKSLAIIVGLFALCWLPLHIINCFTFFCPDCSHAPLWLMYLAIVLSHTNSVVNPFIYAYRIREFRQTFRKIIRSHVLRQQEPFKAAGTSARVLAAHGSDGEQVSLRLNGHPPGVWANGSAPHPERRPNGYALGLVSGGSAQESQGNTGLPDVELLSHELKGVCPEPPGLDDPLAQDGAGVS
In short: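 Test compounds incubated with A2a receptor membranes and a ³H-labelled radioligand for 2 hours at room temperature, then filtered through PEI-presoaked GF/C plates and washed. Filter-bound ³H counted by scintillation; % inhibition calculated from background-subtracted signal relative to high control.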

Adenosine A2B (ADORA2B) receptor, sequence (P29275 whole entry): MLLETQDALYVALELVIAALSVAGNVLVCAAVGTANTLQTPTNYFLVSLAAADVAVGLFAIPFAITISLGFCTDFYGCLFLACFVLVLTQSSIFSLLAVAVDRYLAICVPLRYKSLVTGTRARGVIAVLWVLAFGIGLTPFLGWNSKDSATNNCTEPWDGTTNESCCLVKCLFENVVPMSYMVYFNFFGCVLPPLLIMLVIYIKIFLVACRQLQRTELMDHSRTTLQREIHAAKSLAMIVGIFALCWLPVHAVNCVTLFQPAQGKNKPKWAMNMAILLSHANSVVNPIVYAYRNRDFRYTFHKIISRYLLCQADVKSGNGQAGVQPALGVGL

| pIC50 [1] | pIC50 [2] | SMILES |
| --- | --- | --- |
| 7.00 to 8.00 | > 8.00 | Cc1ccc(-c2nc(NC(=O)C3CC3)cn3cc(C(C)C)nc23)o1 [Compound 215, N-[8-(5-methylfuran-2-yl)-2-propan-2-ylimidazo[1,2-a]pyrazin-6-yl]cyclopropanecarboxamide] |
| 7.00 to 8.00 | 7.00 to 8.00 | Cc1ccc(-c2nc(NC(=O)C3CC3)cn3ccnc23)o1 [Compound 192, N-[8-(5-methylfuran-2-yl)imidazo[1,2-a]pyrazin-6-yl]cyclopropanecarboxamide] |
| < 6.00 | > 8.00 | Cc1nc2cc(NC(=O)C(C)(C)C)nc(-c3ccc(C)o3)n2n1 [Compound 6, 2,2-dimethyl-N-[2-methyl-5-(5-methylfuran-2-yl)-[1,2,4]triazolo[1,5-c]pyrimidin-7-yl]propanamide] |
| 7.00 to 8.00 | > 8.00 | CC(=O)Nc1cc2nc(CF)nn2c(-c2ccco2)n1 [Compound 139, N-[2-(fluoromethyl)-5-(furan-2-yl)-[1,2,4]triazolo[1,5-c]pyrimidin-7-yl]acetamide] |
| > 8.00 | > 8.00 | CC(=O)Nc1cc2nc(C)nn2c(-c2ccc(Br)o2)n1 [Compound 90, N-[5-(5-bromofuran-2-yl)-2-methyl-[1,2,4]triazolo[1,5-c]pyrimidin-7-yl]acetamide] |
| < 6.00 | < 6.00 | Cc1cncc(-c2nc(N)c(Cl)c3nc(C)nn23)c1 [Compound 57, 8-chloro-2-methyl-5-(5-methylpyridin-3-yl)-[1,2,4]triazolo[1,5-c]pyrimidin-7-amine] |
| 6.00 to 7.00 | 7.00 to 8.00 | CNC(=O)Nc1cc2nc(C)nn2c(-c2ccc(F)c(F)c2)n1 [Compound 140, 1-[5-(3,4-difluorophenyl)-2-methyl-[1,2,4]triazolo[1,5-c]pyrimidin-7-yl]-3-methylurea] |
| 7.00 to 8.00 | 7.00 to 8.00 | Cc1nc2c3sc(=O)[nH]c3nc(-c3ccc(C)o3)n2n1 [Compound 27, 4-methyl-7-(5-methylfuran-2-yl)-12-thia-3,5,6,8,10-pentazatricyclo[7.3.0.0^2,6]dodeca-1(9),2,4,7-tetraen-l1-one] |
| < 6.00 | 6.00 to 7.00 | CC(=O)Nc1cc2nc(C)nn2c(-c2cnco2)n1 [Compound 51, N-(2-methyl-5-(oxazol-5-yl)-[1,2,4]triazolo[1,5-c]pyrimidin-7-yl)acetamide] |
| 6.00 to 7.00 | 6.00 to 7.00 | Cc1nc2c(-c3ccccc3C)nc(N)c(Cl)n2n1 [Compound 182, 5-chloro-2-methyl-8-(2-methylphenyl)-[1,2,4]triazolo[1,5-a]pyrazin-6-amine] |
| 7.00 to 8.00 | > 8.00 | Cc1ccc(-c2nc3[nH]c(C(C)(C)O)cc3c3nc(C(C)C)nn23)o1 [Compound 162, 2-[7-(5-methylfuran-2-yl)-4-propan-2-yl-3,5,6,8,10-pentazatricyclo[7.3.0.0^2,6]dodeca-1(9),2,4,7,11-pentaen-11-yl]propan-2-ol] |
| 7.00 to 8.00 | > 8.00 | Cc1nc2c3c(nc(-c4ccc(C)o4)n2n1)NC(=O)C3 [Compound 97, 4-methyl-7-(5-methylfuran-2-yl)-3,5,6,8,10-pentazatricyclo[7.3.0.0^2,6]dodeca-1(9),2,4,7-tetraen-11-one] |
| 7.00 to 8.00 | > 8.00 | Cc1nc2c(F)c(NC(=O)C3CC3)nc(-c3ccc(C)o3)n2n1 [Compound 39, N-[8-fluoro-2-methyl-5-(5-methylfuran-2-yl)-[1,2,4]triazolo[1,5-c]pyrimidin-7-yl]cyclopropanecarboxamide] |
| < 6.00 | 7.00 to 8.00 | CC(=O)Nc1cc2nc(C)nn2c(-c2ccc(F)c(F)c2)n1 [Compound 129, N-[5-(3,4-difluorophenyl)-2-methyl-[1,2,4]triazolo[1,5-c]pyrimidin-7-yl]acetamide] |
| > 8.00 | > 8.00 | Cc1nc2c(Cl)c(N)nc(-c3ccc(C)s3)n2n1 [Compound 40, 8-chloro-2-methyl-5-(5-methylthiophen-2-yl)-[1,2,4]triazolo[1,5-c]pyrimidin-7-amine] |
| 6.00 to 7.00 | 6.00 to 7.00 | Cc1nc2c3nc(C(F)(F)F)[nH]c3nc(-c3ccc(C)o3)n2n1 [Compound 161, 8-methyl-5-(5-methylfuran-2-yl)-2-(trifluoromethyl)-3H-[1,2,4]triazolo[5,1-f]purine] |
| < 6.00 | < 6.00 | Cc1nc2c3nc(C(F)(F)F)[nH]c3nc(-c3ccco3)n2n1 [Compound 165, 5-(furan-2-yl)-8-methyl-2-(trifluoromethyl)-3H-[1,2,4]triazolo[5,1-f]purine] |
| < 6.00 | 6.00 to 7.00 | CC(=O)Nc1cc2nc(C)nn2c(-c2ccoc2)n1 [Compound 72, N-[5-(furan-3-yl)-2-methyl-[1,2,4]triazolo[1,5-c]pyrimidin-7-yl]acetamide] |
| > 8.00 | > 8.00 | CC(=O)Nc1cc2nc(C(F)(F)F)nn2c(-c2ccc(C)o2)n1 [Compound 41, N-[5-(5-methylfuran-2-yl)-2-(trifluoromethyl)-[1,2,4]triazolo[1,5-c]pyrimidin-7-yl]acetamide] |

| pIC50 [1] | pIC50 [2] | SMILES |
| --- | --- | --- |
| < 6.00 | < 6.00 | Cc1nc2cc(NC(=O)C3CC3)nc(-c3ccc(S(N)(=O)=O)cc3)n2n1 [Compound 114, N-[2-methyl-5-(4-sulfamoylphenyl)-[1,2,4]triazolo[1,5-c]pyrimidin-7-yl]cyclopropanecarboxamide] |
| 6.00 to 7.00 | 7.00 to 8.00 | Cc1nc2cc(NC(=O)C3CC3)nc(-c3ccoc3)n2n1 [Compound 73, N-[5-(furan-3-yl)-2-methyl-[1,2,4]triazolo[1,5-c]pyrimidin-7-yl]cyclopropanecarboxamide] |
| 6.00 to 7.00 | 7.00 to 8.00 | CC(C)c1cn2c(Cl)c(N)nc(-c3ccccc3)c2n1 [Compound 213, 5-chloro-8-phenyl-2-propan-2-ylimidazo[1,2-a]pyrazin-6-amine] |
| 7.00 to 8.00 | > 8.00 | Cc1nc2cc(NC(=O)NCCN3CCCCC3)nc(-c3ccco3)n2n1 [Compound 158, 1-[5-(furan-2-yl)-2-methyl-[1,2,4]triazolo[1,5-c]pyrimidin-7-yl]-3-(2-piperidin-1-ylethyl)urea] |
| > 8.00 | > 8.00 | Cc1ccc(-c2nc(N)c(Cl)c3nc(C(F)(F)F)nn23)o1 [Compound 42, 8-chloro-5-(5-methylfuran-2-yl)-2-(trifluoromethyl)-[1,2,4]triazolo[1,5-c]pyrimidin-7-amine] |
| > 8.00 | > 8.00 | Cc1nc2c(C#N)c(N)nc(-c3ccc(C)o3)n2n1 [Compound 26, 7-amino-2-methyl-5-(5-methylfuran-2-yl)-[1,2,4]triazolo[1,5-c]pyrimidine-8-carbonitrile] |
| < 6.00 | 6.00 to 7.00 | CC(=O)Nc1cc2nc(C3CNC3)nn2c(-c2ccc(C)o2)n1 [Compound 150, N-[2-(azetidin-3-yl)-5-(5-methylfuran-2-yl)-[1,2,4]triazolo[1,5-c]pyrimidin-7-yl]acetamide] |
| 7.00 to 8.00 | 7.00 to 8.00 | Cc1nc2cc(NC(N)=O)nc(-c3ccco3)n2n1 [Compound 152, [5-(furan-2-yl)-2-methyl-[1,2,4]triazolo[1,5-c]pyrimidin-7-yl]urea] |
| 6.00 to 7.00 | 6.00 to 7.00 | Cc1cn2c(Br)c(N)nc(-c3ccc(F)cc3)c2n1 [Compound 206, 5-bromo-8-(4-fluorophenyl)-2-methylimidazo[1,2-a]pyrazin-6-amine] |
| > 8.00 | > 8.00 | CC(=O)Nc1cc2nc(C(C)C)nn2c(-c2ccc(C)o2)n1 [Compound 34, N-[5-(5-methylfuran-2-yl)-2-propan-2-yl-[1,2,4]triazolo[1,5-c]pyrimidin-7-yl]acetamide] |
| 7.00 to 8.00 | > 8.00 | Cc1nc2c(Cl)c(N)nc(-c3ccccc3)n2n1 [Compound 33, 8-chloro-2-methyl-5-phenyl-[1,2,4]triazolo[1,5-c]pyrimidin-7-amine] |
| < 6.00 | 7.00 to 8.00 | CC(=O)Nc1cc2nc(C3CN(C)C3)nn2c(-c2ccco2)n1 [Compound 151, N-[5-(furan-2-yl)-2-(1-methylazetidin-3-yl)-[1,2,4]triazolo[1,5-c]pyrimidin-7-yl]acetamide] |
| < 6.00 | > 8.00 | CN1CC(c2nc3cc(NC(=O)C4CC4)nc(-c4ccco4)n3n2)C1 [Compound 135, N-[5-(furan-2-yl)-2-(1-methylazetidin-3-yl)-[1,2,4]triazolo[1,5-c]pyrimidin-7-yl]cyclopropanecarboxamide] |
| > 8.00 | > 8.00 | Cc1nc2c3cc[nH]c3nc(-c3ccc(C)o3)n2n1 [Compound 35, 4-methyl-7-(5-methylfuran-2-yl)-3,5,6,8,10-pentazatricyclo[7.3.0.0^2,6]dodeca-1(9),2,4,7,11-pentaene] |
| > 8.00 | > 8.00 | Cc1nc2c(-c3ccccc3)nc(N)c(Br)n2n1 [Compound 172, 5-bromo-2-methyl-8-phenyl-[1,2,4]triazolo[1,5-a]pyrazin-6-amine] |
| 6.00 to 7.00 | > 8.00 | CCc1nc2cc(N)nc(-c3ccc(C)o3)n2n1 [Compound 7, 2-ethyl-5-(5-methylfuran-2-yl)-[1,2,4]triazolo[1,5-c]pyrimidin-7-amine] |
| 7.00 to 8.00 | > 8.00 | CCc1nc2cc(NC(=O)C3CC3)nc(-c3ccc(C)o3)n2n1 [Compound 8, N-[2-ethyl-5-(5-methylfuran-2-yl)-[1,2,4]triazolo[1,5-c]pyrimidin-7-yl]cyclopropanecarboxamide] |
| 6.00 to 7.00 | 6.00 to 7.00 | Cc1cn2c(Br)c(N)nc(-c3ccccc3)c2n1 [Compound 203, 5-bromo-2-methyl-8-phenylimidazo[1,2-a]pyrazin-6-amine] |
| 7.00 to 8.00 | > 8.00 | Cc1ccc(-c2nc(N)cc3nc(C(F)(F)F)nn23)o1 [Compound 21, 5-(5-methylfuran-2-yl)-2-(trifluoromethyl)-[1,2,4]triazolo[1,5-c]pyrimidin-7-amine] |
